Measured values reported in patent US9226501B2, “Pesticidal compositions and processes related thereto” (Dow AgroSciences LLC, priority 2012, dated 2016).

Columns and labels:
Assay type in all cases: in vivo
[1] = tested on: Cabbage Looper (CL) (Trichoplusia ni); test: Bioassay on cabbage looper (CL), 128-well diet tray assay; conditions: for pest or weed control at 50 µg/cm2: Trichoplusia ni, 168 h, % mortality, second instar larvae, 50 μg/cm^2 on artificial diet, five to seven days, 25° C., read-out: CL Rating; for CL Rating: Table 5, prophetic compounds subsequently exemplified, cabbage looper
Method: (§1) Certain molecules disclosed in this document were tested against BAW, CEW and CL using procedures described in the following examples. In the reporting of the results, the “BAW & CEW & CL Rating Table” was used (See Table Section).
Bioassays on CL were conducted using a 128-well diet tray assay. One to five second instar CL larvae were placed in each well (3 mL) of the diet tray that had been previously filled with 1 mL of artificial diet to which 50 μg/cm^2 of the test compound (dissolved in 50 μL of 90:10 acetone-water mixture) had been applied (to each of eight wells) and then allowed to dry. Trays were covered with a clear self-adhesive cover, and held at 25° C., 14:10 light-dark for five to seven days. Percent mortality was recorded for the larvae in each well; activity in the eight wells was then averaged. The results are indicated in the table entitled “Table 4: Assay Results Part 2” (See Table Section).

[2] = tested on: Beet Armyworm (BAW) (spodoptera exigua); test: Bioassay on beet armyworm (BAW), 128-well diet tray assay; conditions: for pest or weed control at 50 µg/cm2: Spodoptera exigua, 168 h, % mortality, second instar larvae, 50 μg/cm^2 on artificial diet, five to seven days, 25° C., read-out: BAW Rating; for BAW Rating: Table 5, prophetic compounds subsequently exemplified, beet armyworm
Method: as §1
Bioassays on BAW were conducted using a 128-well diet tray assay. One to five second instar BAW larvae were placed in each well (3 mL) of the diet tray that had been previously filled with 1 mL of artificial diet to which 50 μg/cm^2 of the test compound (dissolved in 50 μL of 90:10 acetone-water mixture) had been applied (to each of eight wells) and then allowed to dry. Trays were covered with a clear self-adhesive cover, and held at 25° C., 14:10 light-dark for five to seven days. Percent mortality was recorded for the larvae in each well; activity in the eight wells was then averaged. The results are indicated in the tables entitled “Table 3: Assay Results Part 1” and “Table 4: Assay Results Part 2” (See Table Section).

[3] = tested on: green peach aphid (GPA) (Myzus persicae); test: Bioassay on green peach aphid (GPA), foliar spray on cabbage seedlings; conditions: 72 h, corrected % control (Abbott), 200 ppm spray on cabbage seedlings, three days, read-out: GPA Rating
Method: Certain molecules disclosed in this document were tested against GPA using procedures described in the following example. In the reporting of the results, the “GPA Rating Table” was used (See Table Section). Cabbage seedlings grown in 3-inch pots, with 2-3 small (3-5 cm) true leaves, were used as test substrate. The seedlings were infested with 20-50 GPA (wingless adult and nymph stages) one day prior to chemical application. Four pots with individual seedlings were used for each treatment. Test compounds (2 mg) were dissolved in 2 mL of acetone/MeOH (1:1) solvent, forming stock solutions of 1000 ppm test compound. The stock solutions were diluted 5× with 0.025% Tween 20 in water to obtain the solution at 200 ppm test compound. A hand-held aspirator-type sprayer was used for spraying a solution to both sides of […] leaves until runoff. Reference plants (solvent check) were sprayed with the diluent only containing 20% by volume of acetone/MeOH (1:1) solvent. Treated plants were held in a holding room for three days at approximately 25° C. and ambient relative humidity (RH) prior to grading. Evaluation was conducted by counting the number of live aphids per plant under a microscope. Percent Control was measured by using Abbott's correction formula (W. S. Abbott, “A Method of Computing the Effectiveness of an Insecticide” J. Econ. Entomol. 18 (1925), pp. 265-267) as follows. […]

SMILES	pest or weed control at 50 µg/cm2 [1] [%]	pest or weed control at 50 µg/cm2 [2] [%]	CL Rating [1]	BAW Rating [2]	pest or weed control at 200 ppm [3] [%]
CC(C)(C)CNC(=O)C(C)(C)NC(=O)c1ccc(/C=C/C(c2cc(Cl)c(Cl)c(Cl)c2)C(F)(F)F)cc1Br (centres unmarked) [FA15]	50 to 100	50 to 100			
CC(NC(=O)c1ccc(/C=C/C(c2cc(Cl)c(Cl)c(Cl)c2)C(F)(F)F)cc1C(F)(F)F)C(=O)NCCF (centres unmarked) [P1618A, (E)-N-(1-((2-Fluoroethyl)amino)-1-oxopropan-2-yl)-4-(4,4,4-trifluoro-3-(3,4,5-trichlorophenyl)but-1-en-1-yl)-2-(trifluoromethyl)benzamide]			A (50-100)	A (50-100)	
C[C@@H](NC(=O)c1ccc(/C=C/C(c2cc(Br)cc(Br)c2)C(F)(F)F)cc1C(F)(F)F)C(=O)NCC(F)F (some centres unmarked) [P2038]			A (50-100)	A (50-100)	
CC(NC(=O)c1ccc(/C=C/C(c2cc(Cl)c(Cl)c(Cl)c2)C(F)(F)F)cc1C(F)(F)F)C(=O)NCC(F)F (centres unmarked) [P1613A]			A (50-100)	A (50-100)	
Cc1cc(/C=C/C(c2cc(Cl)c(Cl)c(Cl)c2)C(F)(F)F)ccc1C(=O)NCC(=O)NCC(F)F (centres unmarked) [FA2]	50 to 100	50 to 100			
C=Cc1cc(/C=C/C(c2cc(Cl)c(Cl)c(Cl)c2)C(F)(F)F)ccc1C(=O)N[C@H](C)C(=O)NCC(F)(F)F (some centres unmarked) [FA17]	50 to 100	50 to 100			
CC(NC(=O)c1ccc(/C=C/C(c2cc(Cl)c(Cl)c(Cl)c2)C(F)(F)F)cc1Br)C(=O)NCCF (centres unmarked) [P1616A]			A (50-100)	A (50-100)	
CC(NC(=O)CNC(=O)c1ccc(/C=C/C(c2cc(Cl)c(Cl)c(Cl)c2)C(F)(F)F)cc1Br)C(F)(F)F (centres unmarked) [P1589]			A (50-100)	A (50-100)	
O=C(CNC(=O)c1ccc(/C=C/C(c2cc(Cl)c(Cl)c(Cl)c2)C(F)(F)F)cc1C(F)(F)F)NCC(F)(F)F (centres unmarked) [P1556]			A (50-100)	A (50-100)	
C[C@@H](NC(=O)c1ccc(/C=C/C(c2cc(Br)cc(Br)c2)C(F)(F)F)cc1C(F)(F)F)C(=O)NCCC(F)(F)F (some centres unmarked) [P2058]			A (50-100)	A (50-100)	
Cc1cc(/C=C/C(c2cc(Cl)c(Cl)c(Cl)c2)C(F)(F)F)ccc1C(=O)NCCC(=O)NCC(F)(F)F (centres unmarked) [P1641]			A (50-100)	A (50-100)	
C[C@@H](NC(=O)c1ccc(/C=C/C(c2cc(Cl)cc(Br)c2)C(F)(F)F)cc1C(F)(F)F)C(=O)NCC(F)(F)F (some centres unmarked) [P588]			A (50-100)	A (50-100)	
C[C@@H](NC(=O)c1ccc(/C=C/C(c2cc(Cl)cc(Cl)c2)C(F)(F)C(F)(F)F)cc1Br)C(=O)NCC(F)(F)F (some centres unmarked) [P1691]			A (50-100)	A (50-100)	
Fc1c(Cl)cc(C(/C=C/c2ccc(C(=S)NCC(=S)NCC(F)(F)F)c(Br)c2)C(F)(F)F)cc1Cl (centres unmarked) [P14]			A (50-100)	B (More than 0-Less than 50)	
CC(F)(F)CNC(=O)C(C)(C)NC(=O)c1ccc(/C=C/C(c2cc(Cl)c(Cl)c(Cl)c2)C(F)(F)F)cc1Br (centres unmarked) [FA23]	50 to 100	50 to 100			
C[C@@H](NC(=O)c1ccc(/C=C/C(c2cc(Cl)c(Cl)c(Cl)c2)C(F)(F)F)cc1I)C(=O)NCC(F)(F)F (some centres unmarked) [FA16]	50 to 100	50 to 100			80 to 100
CC(C)(NC(=O)c1ccc(/C=C/C(c2cc(Cl)c(Cl)c(Cl)c2)C(F)(F)F)cc1Br)C(=S)NCC(F)(F)F (centres unmarked) [FA11]	50 to 100	0 to 50			
C[C@@H](NC(=O)c1ccc(/C=C/C(c2cc(Cl)c(Br)c(Cl)c2)C(F)(F)F)cc1C(F)(F)F)C(=O)NCC(F)(F)F (some centres unmarked) [FA21]	50 to 100	50 to 100			
O=C(NCC(=S)NCC(F)(F)F)c1ccc(/C=C/C(c2cc(Cl)c(F)c(Cl)c2)C(F)(F)F)cc1Br (centres unmarked) [P1864]			A (50-100)	A (50-100)	

SMILES	pest or weed control at 50 µg/cm2 [1] [%]	pest or weed control at 50 µg/cm2 [2] [%]	CL Rating [1]	BAW Rating [2]	pest or weed control at 200 ppm [3] [%]
CCC[C@@H](NC(=O)c1ccc(/C=C/C(c2cc(Cl)c(Cl)c(Cl)c2)C(F)(F)F)cc1C)C(=O)NCC(F)(F)F (some centres unmarked) [FA25]	50 to 100	50 to 100			
C[C@@H](NC(=O)c1ccc(/C=C/C(c2cc(Br)cc(Br)c2)C(F)(F)F)cc1Br)C(=O)NCCC(F)(F)F (some centres unmarked) [P2056]			A (50-100)	A (50-100)	
C[C@@H](NC(=O)c1ccc(/C=C/C(c2ccc(Cl)c(Cl)c2)C(C)(F)F)cc1Br)C(=O)NCC(F)(F)F (some centres unmarked) [FA29]	50 to 100	50 to 100			
CC(C)(NC(=O)c1ccc(/C=C/C(c2cc(Cl)c(Cl)c(Cl)c2)C(F)(F)F)cc1C(F)(F)F)C(=S)NCC(F)(F)F (centres unmarked) [FA12]	50 to 100	50 to 100			
Cc1cc(/C=C/C(c2cc(Cl)c(Cl)c(Cl)c2)C(F)(F)F)ccc1C(=O)NCC(=S)NCC(F)(F)F (centres unmarked) [P1560]			A (50-100)	A (50-100)	
CCc1cc(Cl)cc(C(/C=C/c2ccc(C(=O)N[C@H](C)C(=O)NCC(F)(F)F)c(Br)c2)C(F)(F)F)c1 (some centres unmarked) [FA31]	50 to 100	50 to 100			
CCNC(=O)[C@@H](C)NC(=O)c1ccc(/C=C/C(c2cc(Cl)c(Cl)c(Cl)c2)C(F)(F)F)cc1Br (some centres unmarked) [P1621]			A (50-100)	A (50-100)	
O=C(CNC(=O)c1ccc(/C=C/C(c2ccc(Cl)c(Cl)c2)C(F)(F)F)cc1)NCC(F)(F)F (centres unmarked) [P1781]			A (50-100)	A (50-100)	
Cc1cc(C(/C=C/c2ccc(C(=O)N[C@H](C)C(=O)NCC(F)(F)F)c(C(F)(F)F)c2)C(F)(F)F)cc(Cl)c1Cl (some centres unmarked) [FA20]	50 to 100	50 to 100			
O=C(NCC(=S)NCC(F)(F)F)c1ccc(/C=C/C(c2cc(Cl)c(Cl)c(Cl)c2)C(F)(F)F)cc1C(F)(F)F (centres unmarked) [P1559]			A (50-100)	A (50-100)	
O=C(CNC(=O)c1ccc(/C=C/C(c2cc(Cl)c(Cl)c(Cl)c2)C(F)(F)F)cc1I)NCC(F)(F)F (centres unmarked) [FA24]	50 to 100	50 to 100			
C[C@@H](NC(=O)c1ccc(/C=C/C(c2cc(Br)cc(Br)c2)C(F)(F)F)cc1Br)C(=O)NCC(F)F (some centres unmarked) [P2036]			A (50-100)	A (50-100)	
CC(NC(=O)c1ccc(/C=C/C(c2cc(Cl)c(Cl)c(Cl)c2)C(F)(F)F)cc1Br)C(=O)NCC(F)F (centres unmarked) [P1611A]			A (50-100)	A (50-100)	
O=C(CNC(=O)c1ccc(/C=C/C(c2cc(Br)cc(Br)c2)C(F)(F)F)cc1C(F)(F)F)NCC(F)(F)F (centres unmarked) [P1971]			A (50-100)	A (50-100)	
C[C@@H](NC(=O)c1ccc(/C=C/C(c2cc(Cl)cc(Cl)c2)C(F)(F)F)cc1Br)C(=O)NCC(F)(F)F (some centres unmarked) [P1696]			A (50-100)	A (50-100)	
O=C(NCC(=S)NCC(F)(F)F)c1ccc(/C=C/C(c2cc(Cl)c(F)c(Cl)c2)C(F)(F)F)cc1C(F)(F)F (centres unmarked) [P1866]			A (50-100)	A (50-100)	
Cc1cc(/C=C/C(c2cc(Br)cc(Br)c2)C(F)(F)F)ccc1C(=O)NCC(=O)NC(C)C(F)(F)F (centres unmarked) [P2012]			A (50-100)	A (50-100)	
COc1c(F)cc(C(/C=C/c2ccc(C(=O)NCC(=O)NCC(F)(F)F)c(Br)c2)C(F)(F)F)cc1F (centres unmarked) [FA8]	50 to 100	0 to 50			
O=C(CCNC(=O)c1ccc(/C=C/C(c2cc(Cl)c(Cl)c(Cl)c2)C(F)(F)F)cc1Br)NCC(F)(F)F (centres unmarked) [P1638]			A (50-100)	A (50-100)	
